Results on one molecule are retold here after US9011863B2, “Combinations of kinase inhibitors for the treatment of cancer” (Exelixis, Inc., priority 2010, dated 2015).

The test system of test [1] is pAKT, pS6, HER3, pHER3, HER2 in human breast cancer cell lines. Kind of test: immunoblotting of PI3K/AKT pathway markers. It counts as cell-based. The method, then: Immunoprecipitation, immunoblotting, and RTK assays were performed according to published methods. Primary antibodies included AKT, pAKT^S473, pAKT^T308, ERK, pERK^T202/Y204, pHER2^Y1248, pHER3^Y1197, pHER3^Y1222, pHER3^Y1289, S6, pS6^S240/244, p27, pRb^S780, FoxO1, FoxO3a, MEK1/2 (Cell Signaling Technology, Danvers, Mass., USA), p85, 4G10 pTyr (Millipore, Billerica, Mass., USA), HER3, CyclinD1, RhoA, HDAC3 (Santa Cruz Biotechnology, Santa Cruz, Calif., USA), PARP (BD Transduction Laboratories), β-actin (Sigma, St. Louis, Mo., USA), and HER2 (Neomarkers, division of Thermo Scientific, Freemenot, Calif., USA). Species-specific horseradish peroxidase-conjugated secondary antibodies were from Promega (Madison Wis., USA). Immunoreactive signals were detected by enhanced chemilluminsecence (Pierce, Rockford, Ill., USA). Phospho-RTK arrays were from R&D Systems (Minneapolis, Minn., USA) total cell lysates were used to hybridize with the arrays according to the manufacturer's instructions.
A panel of breast cancer cell lines with dysregulated PI3K activity was treated with increasing doses of compound A under two- and three-dimensional (2D and 3D) growth conditions. All experiments were conducted in 2.5% FBS-containing media, unless otherwise stated. […] This was further confirmed by immunoblot analysis of biomarkers of cell death and G1-S cell cycle transition in lysates from cells treated for 24 hours with compound A as shown in FIG. 10B.
Experiments were performed to examine the effect of compound A on a more comprehensive panel of molecules in the PI3K and TOR signaling pathways.
Although pHER3 is known to activate the extracellular signal regulated kinase (ERK/MAPK) via its interaction through the adaptor protein Shc, recovery of pERK upon feedback reactivation of HER3 was not detected consistently as shown in FIG. 13A.

In test [2] the test system is HER3 expression in A549 human lung xenografts. Kind of test: HER3 modulation in A549 tumors. It is filed as in vivo, Swiss nude mice. How it is done: Briefly, mice bearing measurable lung A549 tumors implanted SC have been left untreated or treated either by MM121 as a single agent (at dose of 5 mg/kg or 30 mg/kg, one administration) or by compound A as a single agent (at dose of 30 mg/kg or 100 mg/kg, daily administrations) or by a combination of both (at 30 mg/kg for MM121 and 100 mg/kg for compound A). The HER3 expression level in xenografted tumors has been followed for up to 96 hours.

Setting [3] is: concentrations below 20 μM, 24 hours.

As for `COc1ccc(Cl)c(Nc2nc3ccccc3nc2NS(=O)(=O)c2cccc(NC(=O)C(C)(C)N)c2)c1` [Compound A], the “cell lines with upregulation of total HER3 and/or pHER3^Y1289 levels” value in test [1] (24 hours) is on record as 6/7. The “time to recovery of pAKT and pS6 levels” value in test [1] (BT474, 6 μM) is at most 6 hours. Moreover, the “total HER3, pHER3, pAKT time course” value in test [1] (BT474, 6 μM, 0-72 hours) is “time-dependent upregulation of total HER3, HER3 phosphorylated at Y1197 and Y1289”. For the same molecule, the “HER3 RNA and protein time course” value in test [1] (BT-474 cells, 6 uM, inhibitor added every 24 hours) was “time-dependent upregulation of HER3 RNA and protein, beginning at 6 hours and increasing through 72 hours”. For the same molecule, the “catalytic activity or autophosphorylation of HER2” value in test [1] (HER2-overexpressing cells) was “does not affect the catalytic activity or autophosphorylation of HER2”. For the same molecule, in test [1] (SKBR-3 and MDA-453 cells, like in BT-474), the P-Erk entry is on record as “P-Erk is upregulated”. Moreover, in test [1] (all cell lines, 0-20 μM), the “pAKT^S473/T308 and pS6^S240/244” value is “dose-dependent reduction in pAKT^S473/T308 and pS6^S240/244”. Also, the “PI3K signaling as measured by pAKT^S473” value in test [1] (all cell lines, 24 hours, 0-20 μM) is on record as “dose-dependent inhibition of PI3K signaling”. Also, the “cyclin D1, pRB, p27^KIP1” value in test [1] (setting [3]) was “reduction in cyclin D1 and pRB and an increase in levels of the CDK inhibitor p27^KIP1”. For the same molecule, the “total or cleaved PARP” value in test [1] (setting [3]) is “no change in levels of total or cleaved PARP”. The “HER2-overexpressing cell lines with modest upregulation of total HER2 and/or pHER2^Y1248” value in test [1] (upon inhibition of PI3K) was 5/6. Further, the “HER3 expression, Change vs Control (%)” value in test [2] (Compound A 30 mg/kg PO: Q1Dx1, 4 h) is listed as −3%; in test [2] (Compound A 30 mg/kg PO: Q1Dx1, 24 h), 12%; in test [2] (Compound A 30 mg/kg PO: Q1Dx2, 24 h), 23%; in test [2] (Compound A 30 mg/kg PO: Q1Dx3, 24 h) it was 27%; in test [2] (Compound A 100 mg/kg PO: Q1Dx1, 4 h), 10%; in test [2] (Compound A 100 mg/kg PO: Q1Dx1, 24 h) it was 19%. Further, the “HER3 expression, Change vs Control (%)” value in test [2] (Compound A 100 mg/kg PO: Q1Dx2, 24 h) is reported as 45%; in test [2] (Compound A 100 mg/kg PO: Q1Dx3, 24 h), 37%. The “HER3 expression in A549 lung model (summary of Table 5)” value in test [2] (up to 96 hours) is given as “slight increase of HER3 expression”.
